Here are results for five molecules from patent US20140235518A1, “AQUEOUS LIQUIDS CONTAINING AN ORGANIC COMPOUND AND AN N-(2-HYDROXYALKYL) SUBSTITUTED N-ALKYLAMINE” (TAMINCO, priority 2011, published 2014).

Series [1] has as its system microbial population of spoiled coolant. In words: Biostability comparison, soluble oil emulsion diluted in spoiled coolant (CFU by oxygen pressure). In kind it is cell-based. As to conditions: diluted 20 to 1 in spoiled coolant water. The protocol:
(§1) The 100 ml test solutions were initially challenged with 10 ml of a lab maintained rancid soluble oil containing 50% tramp oil with an overall biological count of 8,800,000 CFU/ml. The degree of biological growth throughout the experiment was measured by the HMB-IV (Biotech International, Needville, Tex.) method for determination of the aerobic and facultative biological activity within a liquid metalworking fluid sample. This test method is based on the principle that most of the microorganisms in challenged metalworking fluids produce catalase while they are active. The addition of a known amount of a formulated HMB-IV oxidizing agent (hydrogen peroxide, buffer and chelating chemicals) to a standard volume of the sample fluid in a sealed test tube allows for an amount of oxygen proportional to the amount of active bacteria to be produced via the chemical reaction between active catalase enzyme and the hydrogen peroxide. A calibrated device is used to measure the amount of oxygen that is produced via the change in the pressure of the headspace within a test tube over a period of 15 minutes.
A challenge test comparison of the following soluble oil emulsion was carried out over several days.
The above concentrate formula was used with either 3 or 5 parts of one of the test amines. The soluble oil concentrate was diluted 20 to 1 in stagnant water made up from spoiled coolant (cultured from an original stock of rancid metalworking coolant used in a ferrous alloy cutting operation) which was in turn prepared by diluting 10% of a 60,000,000 CFU per ml of stock spoiled coolant with 90% tap water that had been allowed to air out for 24 hours. The challenge solution, which in this experiment is a control, was calculated to initially contain 6,000,000 CFU per ml microbial population. By the next day, the microbial content of the challenge solution had increased to 13,000,000 CFU per ml. By the end of the trial, the microbial content of the challenge solution had declined to 7,400,000 CFU. The concentration of microbes was determined by oxygen pressure development as described in Example 4.

The nature of series [2]: Interfacial tension by drop weight measurements. Type of series: physicochemical. Conditions: 22° C. The protocol:
Drop weight measurements (i.e., the weight of a drop of one fluid as it is carefully released into another immiscible fluid) were used to evaluate the air/liquid and liquid/liquid interfacial tensions of 5% BDEA(aq) (butyldiethanolamine with C/OH ratio of 4), 5% HBHEEA(aq) (hydroxybutyl hydroxyethyl ethylamine with C/OH ratio of 4) and 2% HBHEBA(aq) (hydroxybutyl hydroxyethyl butylamine with C/OH ratio of 5) solutions at RT (22° C.). Note that a solution of 2% wt/wt of HBHEBA in water takes several minutes to form. About 1% wt/wt of HBHEBA dissolves in water fairly rapidly with stirring, while up to approximately 3% wt/wt can eventually be dissolved if stirring is continued for a longer period of time. The following relationship (oftentimes referred to as Tate's law) is used to relate drop weight to the interfacial tension between the drop fluid and the fluid being “dropped” into:
γ=mactual(1−ρfluid/ρdrop)g/(2πr)
Drop weights were taken 10 at a time and averaged. Three replicates of the drop average were taken to insure accuracy. […] The Table below contains drop weight data of some aqueous AAA solutions as dropped into air and into decane (ρ=0.73 g/ml):
The data for DI water dropped into air is used to standardize the pipette. The surface tension of water/air at 22° C. and 1 bar absolute P is 72 dynes/cm.
Using this value in the equation for DI water gives an orifice radius of 1.2 mm (0.12 cm). All of the measurements were carried out with the same pipette. Using the value of 1.2 mm as the radius of the pipette orifice allows for accurate calculation of the unknown interfacial tensions. Both BDEA and HBHEEA have the same MW and the same total C/OH ratio of 4, but both molecules display distinct interfacial tension properties. […] AAA's of identical total C/OH ratio and identical MW but with differing distribution of hydrophobic and hydrophilic regions display unique properties with respect to solubility, viscosity, volatility, impact on emulsion stability, and assistance to biostability.

A short description of series [3]: Comparative emulsion stability (p-terphenyl oil / 20% aqueous AAA). Type of series: physicochemical. Conditions: 10 g p-terphenyl oil + 10 g 20% wt/wt aqueous AAA, 10 s vortex. An excerpt:
The emulsion prepared with aqueous N-butyldiethanolamine (BDEA, C/OH ratio=4) was compared to an otherwise identical emulsion prepared with 20% aqueous N-(2-hydroxybutyl)-N-(2-hydroxyethyl)-N-ethylamine (HBHEEA, C/OH ratio=4).

A short description of series [4]: Condition of challenged test solutions (pH, putrification odor, appearance). Conditions: formula with 4.97% amine at 4% aqueous dilution. The protocol:
(§2) The biostability of three fluids containing different amines was assessed in a challenge test format. The three amines used were DCHA (dicyclohexylamine), DBAE (dibutylaminoethanol) and HBHEBA (hydroxybutyl hydroxyethyl butylamine). The test solutions were approximately 100 ml in volume and maintained at RT. The following formula was used at 4% aqueous dilution for testing:
(§3) The second challenge at 3 days was 20 ml of a rancid semi-synthetic coolant with a CFU/ml reading of 10,000,000. A volume of 20 ml was necessary to bring the volume back to the original 100 ml (each CFU/ml measurement removes 10 ml of coolant). The third challenge at 10 days was an additional 20 ml of the 10,000,000 CFU/ml rancid semi-synthetic coolant.

For series [5], the system named is microorganisms in challenged metalworking fluids. In words: Challenge with amines as sole biostabilizing agent (HMB-IV catalase/oxygen pressure CFU). Conditions: formula with 4.97% amine at 4% aqueous dilution; for CFU one hour after first challenge: CFU/ml. Type of series: cell-based. How it is done: as §2
as §1, with “The addition of a known amount of a formulated HMB-IV oxidizing agent (hydrogen peroxide, buffer and chelating chemicals) to a standard volume of the sample fluid in a sealed test tube allows for an amount of oxygen proportional to the amount of active bacteria to be produced via the chemical reaction between active catalase enzyme and the hydrogen peroxide.” left out
as §3

A short description of series [6]: Dissolution of HBHEBA in water. Type of series: physicochemical. Conditions: RT. The protocol: Drop weight measurements (i.e., the weight of a drop of one fluid as it is carefully released into another immiscible fluid) were used to evaluate the air/liquid and liquid/liquid interfacial tensions of 5% BDEA(aq) (butyldiethanolamine with C/OH ratio of 4), 5% HBHEEA(aq) (hydroxybutyl hydroxyethyl ethylamine with C/OH ratio of 4) and 2% HBHEBA(aq) (hydroxybutyl hydroxyethyl butylamine with C/OH ratio of 5) solutions at RT (22° C.). Note that a solution of 2% wt/wt of HBHEBA in water takes several minutes to form. About 1% wt/wt of HBHEBA dissolves in water fairly rapidly with stirring, while up to approximately 3% wt/wt can eventually be dissolved if stirring is continued for a longer period of time. The following relationship (oftentimes referred to as Tate's law) is used to relate drop weight to the interfacial tension between the drop fluid and the fluid being “dropped” into: […]

[7] abbreviates: AAA @ 3% in concentrate (1500 ppm diluted).
Setting [8] is: AAA @ 5% in concentrate (2500 ppm diluted).
[9] abbreviates: 5% (aq) solution dropped into Air.
Setting [10] is: 5% (aq) solution dropped into Decane.

On to `CCCCN(CCO)CCO` [BDEA, N-butyldiethanolamine], for which, in series [1] (setting [7]), the “CFU per ml after 1 day” value was 11 CFU per ml × 10^6 and the “CFU per ml after 4 days” value amounted to 9.0 CFU per ml × 10^6. For the same molecule, in series [1] (setting [8]), the “CFU per ml after 1 day” value is on record as 3.5 CFU per ml × 10^6 and the “CFU per ml after 4 days” value turned out to be 2.1 CFU per ml × 10^6. Besides, in series [2] (setting [9]), the “γ Drop to Fluid (air/liquid interfacial tension)” value was 41 dynes/cm. Moreover, in series [2] (setting [10]), the “γ Drop to Fluid (liquid/liquid interfacial tension)” value was 13 dynes/cm. Further, in series [3], the “Time to complete phase separation of emulsion” value was no more than 30 min and the “Time to significant oil coalescence of emulsion” value is no more than 15 min.
As to `CCCCN(CCO)CCCC` [DBAE, N,N-dibutylaminoethanol], in series [4], the “pH of test solution @ 25 days” value was found to be 8.2, the “pH of test solution @ 90 days” value came to 7.7 and the “pH of test solution after first challenge” value (“pH … after first challenge” below) turned out to be 9.4. Moreover, in series [5], the “CFU @ 3 days (2nd challenge)” value is reported as 310,000 CFU, the “CFU @ 7 days (4 days after 2nd challenge)” value (“CFU @ 7 days” below) was 2,100,000 CFU, the “CFU @ 10 days (3rd challenge)” value is listed as 4,000,000 CFU and the “CFU @ 14 days (4 days after 3rd challenge)” value (from here on “CFU @ 14 days”) was 2,500,000 CFU. In series [5], the “CFU @ 25 days (7 days after fresh dilution)” value (“CFU @ 25 days” below) is listed as 2,900,000 CFU, the “CFU @ 90 days (60 day idle period simulation)” value (“CFU @ 90 days” for short) is 8,100,000 CFU and the “CFU one hour after first challenge” value was 740,000 CFU.
For the molecule `C1CCC(NC2CCCCC2)CC1` [DCHA, dicyclohexylamine], in series [4], the “pH of test solution @ 25 days” value is on record as 8.2, the “pH of test solution @ 90 days” value is 7.7 and the “pH … after first challenge” value is given as 9.1. Moreover, in series [5], the “CFU @ 3 days (2nd challenge)” value is listed as 410,000 CFU, the “CFU @ 7 days” value is 3,000,000 CFU, the “CFU @ 10 days (3rd challenge)” value is recorded as 3,900,000 CFU and the “CFU @ 14 days” value is recorded as 3,900,000 CFU. Besides, in series [5], the “CFU @ 25 days” value was 4,000,000 CFU, the “CFU @ 90 days” value is 33,000,000 CFU and the “CFU one hour after first challenge” value was 630,000 CFU.
Regarding `CCCCN(CCO)CC(O)CC` (stereo not shown) [HBHEBA, N-(2-hydroxybutyl)-N-(2-hydroxyethyl)-N-butylamine], in series [1] (setting [7]), the “CFU per ml after 1 day” value was 7.3 CFU per ml × 10^6 and the “CFU per ml after 4 days” value is 5.0 CFU per ml × 10^6. For the same molecule, in series [1] (setting [8]), the “CFU per ml after 1 day” value stood at 3.0 CFU per ml × 10^6 and the “CFU per ml after 4 days” value was found to be 1.2 CFU per ml × 10^6. Also, the “γ Drop to Fluid (air/liquid interfacial tension)” value in series [2] (2% (aq) solution dropped into Air) is on record as 34 dynes/cm. For the same molecule, the “γ Drop to Fluid (liquid/liquid interfacial tension)” value in series [2] (2% (aq) solution dropped into Decane) is 8 dynes/cm. For the same molecule, in series [4], the “pH of test solution @ 25 days” value amounted to 8.2, the “pH of test solution @ 90 days” value is 7.6 and the “pH … after first challenge” value is given as 9.1. Besides, in series [5], the “CFU @ 3 days (2nd challenge)” value is 140,000 CFU, the “CFU @ 7 days” value is given as 3,300,000 CFU, the “CFU @ 10 days (3rd challenge)” value is listed as 4,500,000 CFU and the “CFU @ 14 days” value is recorded as 2,900,000 CFU. In addition, in series [5], the “CFU @ 25 days” value was 1,700,000 CFU, the “CFU @ 90 days” value is 7,700,000 CFU and the “CFU one hour after first challenge” value is reported as 610,000 CFU. Further, in series [6] (stirring continued for a longer period of time), the “Amount that can eventually be dissolved in water” value was “approximately 3 % wt/wt”. For the same molecule, in series [6] (with stirring), the “Amount dissolving in water fairly rapidly” value was “About 1 % wt/wt”.
On to `CCC(O)CN(CC)CCO` (stereo not shown) [HBHEEA, N-(2-hydroxybutyl)-N-(2-hydroxyethyl)-ethylamine], for which the “γ Drop to Fluid (air/liquid interfacial tension)” value in series [2] (setting [9]) stood at 37 dynes/cm. Moreover, the “γ Drop to Fluid (liquid/liquid interfacial tension)” value in series [2] (setting [10]) is reported as 17 dynes/cm. Besides, the “Emulsion stability (visual)” value in series [3] is reported as “remained completely opaque with no visible signs of coalescence for several hours”.
